# In patent US20060116360A1, “Method of administering anti-angiogenic agents and a method of treating disease using same” (priority 2004, published 2006):
# “Also recorded” adds a separate entry of the source. Marks after values point to notes of the source that are not given here.
# What was measured:
# [1] = tested on: vascular endothelial cell proliferation; conditions: endothelial versus tumor cell proliferation; cited from earlier work
# [2] = tested on: Tumor cell lines (Lewis lung carcinoma or MDA-MB-231); test: Wash-out in vitro anti-proliferation studies (cell counts) with ENMD-1198; format: cell-based
# Protocol: Tumor cell lines (Lewis lung carcinoma or MDA-MB-231) were treated in vitro for varying times with varying concentrations of ENMD-1198. Over the course of a three-day study, on each study day the cells were exposed to ENMD-1198 for varying times (1, 2, 4, 6, or 24 hours) at the indicated concentrations. The medium was then removed and replaced with medium without ENMD-1198 for the remainder of each 24-hour period. For the 24-hour exposure wells, the medium was changed every day to provide 72 hours continuous exposure. Anti-proliferative activity was determined by cell counts after the third day of treatment.
# [3] = Plasma 2ME2 pharmacokinetics in non-tumor bearing C57BL/6 mice; format: in vivo; conditions: for Cmin / Tmax / T½ / Cmax / AUC0-24: i.p.
# Protocol: On day 7, plasma samples were collected at selected time points, and plasma unconjugated 2ME2 levels were determined using LC-MS/MS methodology.
# The data for 0.5 mg q.i.d. over the first six hours was used to model steady state levels over a 24 hr. time period as shown in FIG. 2. Pharmacokinetic parameters were determined by noncompartmental analysis using WinNonLin (Pharsight, Mountain View, Calif.).
# (§1) In further support of this paradigm, a significant inhibition of pulmonary metastases was obtained in tumor-bearing mice given 2ME2 by continuous infusion using Alzet pumps. Three days after injection of LLC cells, therapy was initiated i.p. with either vehicle control or with 2ME2 delivered through 7-day osmotic pumps (see FIG. 3A). The daily target levels of 2ME2 were calculated assuming an average pump rate of […]. To achieve a target level of 200 mg/kg/day, the concentration of 2ME2 in the osmotic pumps was prepared at 150 mg/mL. Asterisks indicate groups statistically different from vehicle control (α=0.05) as shown in A. To determine the PK profile of 2ME2 using this delivery scheme, non-tumor bearing male C57BL/6 mice (6 weeks of age) were treated i.p. for up to 7 days with 2ME2 at 1.8 mg/day (˜100 mg/kg/day) using 7-day osmotic pumps. On days 2, 4, and 7, plasma samples were collected and plasma 2ME2 levels were determined as described above (see FIG. 3B).
# LLC cell line = test: Wash-out in vitro proliferation study mimicking i.v. dosing; format: cell-based; conditions: 3microM 2ME2 for 2 hours, then medium alone
# Protocol: FIG. 1, Panel C: We designed a “wash-out” in vitro proliferation study to mimic the exposure profile following i.v. dosing. The LLC cell line was plated in 96-well plates. After 24 hours, medium containing 3microM 2ME2 was added. Cells were exposed to 3microM 2ME2 for 2 hours. The medium was then removed and replaced with medium alone (medium: DMEM/F12 (1:1)+10% FBS+2mM L-Glutamine).
# [4] = tested on: Tumor cell lines (Lewis lung carcinoma or MDA-MB-231); test: Wash-out in vitro anti-proliferation studies (BrdU) with 2ME2; format: cell-based
# Protocol: To mimic the effect of cyclic levels of 2ME2 seen after daily dosing, and to compare this to the effects of continuous exposure to 2ME2, we carried out a series of wash-out in vitro anti-proliferation studies. Tumor cell lines (Lewis lung carcinoma or MDA-MB-231) were treated in vitro for varying times with varying concentrations of 2ME2. Over the course of a three-day study, on each study day the cells were exposed to 2ME2 for varying times (1, 2, 4, 6, or 24 hours) at the indicated concentrations. The medium was then removed and replaced with medium without 2ME2 for the remainder of each 24-hour period. Anti-proliferative activity was determined using a BrdU proliferation assay according to the manufacturer's instructions after the third day of treatment (see FIGS. 4A and 4B).
# Lewis lung carcinoma = Lewis lung carcinoma experimental pulmonary metastasis model; format: in vivo, mice; conditions: for antitumor activity, T/C: 100 mg/kg/day
# From the text: A pharmacodynamic paradigm relating 2ME2 pharmacokinetics to activity in vivo was developed. Dose-response relationships were established for 2ME2 following administration by (a) i.v. bolus administration, (b) oral gavage, (c) i.p. bolus injection, (d) i.p. dose fractionation, (e) continuous i.p. infusion, or (f) drinking water ad libitum in animal models, including an experimental pulmonary metastatic Lewis lung carcinoma model, primary tumor cell xenograft models, and a model of rheumatoid arthritis. Plasma 2ME2 concentration was temporally assessed by GC-MS or LC-MS/MS methodology, and pharmacokinetic parameters were defined at effective doses.
# These studies assess the effect of route of administration on the anti-tumor activity of 2ME2 in an orthotopic model of murine lung cancer. Three days following the intravenous injection of Lewis lung carcinoma (“LLC”), groups of ten mice were treated with 2ME2 (200 mg/kg) once every 24 hours (q.d.) by either oral gavage (p.o.) or intraperitoneal (i.p.) injection.
# FIG. 1, Panel B: 2.5×10^5 Lewis lung carcinoma cells in a volume of 0.2 ml were i.v. injected into the lateral tail vein of C57BL/6 male mice, 5-6 weeks of age (Jackson Labs). Treatment was initiated three days later by daily i.v. injection with 2ME2. Following the final day of therapy, mice were sacrificed, lungs removed, washed in phosphate buffered saline and weighed. Results are expressed as lung weight gain in treated versus control animals.
# Dose-dependent inhibition of pulmonary metastases was observed following daily bolus administration of 2ME2. Fractionating a bolus q.d. injection (once every 24 hours, 2 mg/injection, 100 mg/kg/day) into four smaller, equal doses (q6hr, 0.5 mg/injection, 100 mg/kg/day) improved the antitumor activity of 2ME2 (T/C=0.30 and 0.05, respectively, p<0.05).
# as §1
# In further support of this paradigm, a significant inhibition of pulmonary metastases was obtained in tumor-bearing mice given 2ME2 ad libitum access through their drinking water.
# [5] = Plasma 2ME2 pharmacokinetics in non-tumor bearing C57BL/6 mice; format: in vivo; conditions: ad libitum drinking water, range over a 24 hr period
# H2122 human NSCLC cells = test: Orthotopic H2122 NSCLC rat tumor model, survival; format: in vivo, rats
# Protocol: Female athymic nude rats were injected i.t. with H2122 human NSCLC cells (1×10^6 in 0.2 mL). Seven days later, daily therapy was initiated p.o. with either vehicle control or 2ME2 at 10 or 60 or 300 mg/kg/d (n=15 rats/group). Animals were monitored closely for signs of morbidity and median survival times (MST) were determined. The study was terminated 50 days post tumor cell injection. In a separate cohort of non-tumor-bearing rats, plasma 2ME2 concentrations were determined at selected time points following a single oral gavage at 60 and 300 mg/kg. The PK data in Table 3 represents the range of 2ME2 concentrations in a 24 hour period. […] Using relevant PK data for any given formulation in a human or animal, it is possible for one skilled in the art to devise a dosing strategy—a combination of dose level and dose frequency—which will result in substantially continuous maintenance of the plasma level of the agent within the desired concentration range and so maximize the pharmacological activity, in this case anti-tumor activity.
# [6] = tested on: collagen-induced arthritis; test: Rat collagen-induced arthritis model, radiographic scores; format: in vivo
# From the text: Using relevant PK data for any given formulation in a human or animal, it is possible for one skilled in the art to devise a dosing strategy-a combination of dose level and dose frequency-which will result in substantially continuous maintenance of the plasma level of the agent within the desired concentration range and so maximize the pharmacological activity, in this case anti-arthritic or anti-inflammatory activity.
# [7] = short-term incubation, even at high concentrations
# [8] = 0.5 q.i.d., modelled from first six hours
smiles,measurement,setting,value
CO[C@@H]1[C@H](OC(=O)NC(=O)CCl)CC[C@]2(CO2)[C@H]1[C@@]1(C)O[C@@H]1CC=C(C)C [AGM-1470],lower concentration for half-maximal inhibition of vascular endothelial cell proliferation than of tumor cell proliferation,[1],4 logs
COc1cc2c(cc1C(N)=O)CC[C@@H]1[C@@H]2CC[C@]2(C)C=CC[C@@H]12 [ENMD-1198],inhibition of proliferation in vitro,[2]; continuous exposure (72 hours),maximal inhibition of proliferation
same,anti-proliferative activity in vitro,[2]; [7],does not result in much anti-proliferative activity
"COc1cc2c(cc1O)CC[C@@H]1[C@@H]2CC[C@]2(C)[C@@H](O)CC[C@@H]12 [Formulation 2ME2, 2-methoxyestradiol]",Cmin,"[3]; 0.5 q.d., day 7",1.46 ng/mL
same,Tmax,"[3]; 0.5 q.d., day 7",0.5 h
same,T½,"[3]; 0.5 q.d., day 7",1.1 h
same,Cmax,"[3]; 0.5 q.d., day 7, plasma unconjugated 2ME2",325 ng/mL
same,AUC0-24,"[3]; 0.5 q.d., day 7, = AUC0-6*4",826.5^a ng/mL*hr
same,AUC0-24,[3]; [8],836.1 ng·h/mL
same,Cmin,[3]; [8],1.50 ng/mL
same,Tmax,[3]; [8],18.5 h
same,T½,[3]; [8],1.1 h
same,Cmax,"[3]; 0.5 q.i.d., steady state over 24 hr modelled from first six hours",326.09 ng/mL
same,AUC0-24,"[3]; 2.0 q.d., day 7",13570.9 ng·h/mL
same,Cmax,"[3]; 2.0 q.d., day 7",14070 ng/mL
same,Cmin,"[3]; 2.0 q.d., day 7",0.86 ng/mL
same,Tmax,"[3]; 2.0 q.d., day 7",0.5 h
same,T½,"[3]; 2.0 q.d., day 7",3.2 h
same,plasma exposure levels,"[3]; continuous i.p. infusion, Alzet osmotic pumps, ~100 mg/kg/day",9 to 25 ng/mL
same,anti-proliferative effect of transient exposure,LLC cell line,poor anti-proliferative effect; also recorded: did not result in much anti-proliferative activity
same,inhibition of proliferation in vitro,[4]; continuous exposure,maximal inhibition of proliferation
same,anti-proliferative activity in vitro,[4]; [7],does not result in much anti-proliferative activity
same,"inhibition of pulmonary metastases, T/C",Lewis lung carcinoma; 2ME2 200 mg/kg q.d. i.p. injection,0.17
same,"inhibition of pulmonary metastases, T/C",Lewis lung carcinoma; 2ME2 200 mg/kg q.d. oral gavage (p.o.),0.28
same,"inhibition of pulmonary metastases, T/C",Lewis lung carcinoma; 2ME2 ad libitum through drinking water,0.16
same,"antitumor activity, T/C","Lewis lung carcinoma; bolus q.d., 2 mg/injection",0.30
same,growth inhibition of pulmonary metastases,"Lewis lung carcinoma; continuous i.p. infusion, Alzet osmotic pumps, calculated dose ~100 mg/kg/day",89%
same,anti-tumor activity in vivo (lung weight gain),"Lewis lung carcinoma; daily i.v. injection, transiently high levels",did not result in significant anti-tumor activity
same,"antitumor activity, T/C","Lewis lung carcinoma; q6hr, 0.5 mg/injection",0.05
same,plasma 2ME2 concentrations,[5],3 to 15 ng/mL
same,% Survival on Day 50,H2122 human NSCLC cells; 2ME2 10 mg/kg/d p.o.,13%
same,Median Survival Time,H2122 human NSCLC cells; 2ME2 10 mg/kg/d p.o.,18.5 days
same,% Survival on Day 50,H2122 human NSCLC cells; 2ME2 60 mg/mk/d p.o.,20%
same,Median Survival Time,H2122 human NSCLC cells; 2ME2 60 mg/mk/d p.o.,26 days
same,% Survival on Day 50,H2122 human NSCLC cells; 2ME2 300 mg/kg/d p.o.,47%
same,Median Survival Time,H2122 human NSCLC cells; 2ME2 300 mg/kg/d p.o.,43 days
same,increase in median survival time as compared to diluent-treated controls,"H2122 human NSCLC cells; oral gavage, plasma 2ME2 3-17 ng/mL",2.5 fold
same,radiographic scores on day 28,[6]; 2ME2 50 mg/kg p.o. b.i.d,2.11±0.18
same,radiographic scores on day 28,[6]; 2ME2 60 mg/kg s.c. continuous infusion (Alzet pumps),1.5±0.18
same,radiographic scores on day 28,[6]; 2ME2 100 mg/kg p.o. q.d.,2.88±0.21
